The text below walks through data of US11590148B2, “Use of calcifediol in bariatric surgery patients” (OPKO IRELAND GLOBAL HOLDINGS, LTD., priority 2018, dated 2023).

Common to all, as to type: in vivo, human
The subject of series [1] is patients who are candidates for Roux-en-Y Surgery. Kind of series: Efficacy study in Roux-en-Y surgery patients (6-month). How it is done:
The effectiveness of oral sustained-release 25-hydroxyvitamin D3 in restoring serum total 25-hydroxyvitamin D to optimal levels (>30 ng/mL) and reducing parathyroid hormone level, is examined in a 6-month study of adult male and female patients who are candidates for Roux-en-Y Surgery for weight reduction. In a controlled study, patients are treated with sustained-release 25-hydroxyvitamin D3 (softgel capsules containing 25-hydroxyvitamin D3).
A total of 60 subjects participate in this study, all of whom have serum total 25-hydroxyvitamin D levels less than 30 ng/mL at the time of enrollment and serum intact parathyroid hormone levels greater than 70 pg/mL as evidence of SHPT. All subjects receive a multivitamin therapy including calcium (up to 1,000 mg daily) and cholecalciferol (3000 IU daily) following surgery, and abstain from receiving other Vitamin D therapy and significant sun exposure. Serum total 25-hydroxyvitamin D, serum intact parathyroid hormone, serum calcium, serum phosphorus, urinary calcium, urinary phosphorus, and urinary creatinine are measured from the day of surgery, and at monthly intervals following surgery.
After 2 months, the daily calcium dosage is maintained unchanged, and the cholecalciferol supplement is discontinued, while daily administration of sustained-release 25-hydroxyvitamin D3 (softgel capsules containing 30 μg 25-hydroxyvitamin D3) is initiated and continued for four months.

For series [2], the system named is patients with intractable VDI having undergone bariatric surgery. Kind of series: Long-term efficacy study in bariatric surgery patients (52-week, ERC). On the procedure: The effectiveness of oral extended-release 25-hydroxyvitamin D3 (ERC) in raising serum total 25-hydroxyvitamin D to ≥30 ng/mL and reducing plasma iPTH by at least 30% from pre-treatement baseline is examined in a 52-week study of male and female patients aged at least 18 years, with intractable VDI, and having undergone bariatric surgery. In a randomized, double-blind controlled study, patients receive ERC or matching placebo.
Subjects are without any disease state or physical condition that might impair evaluation of safety or which would interfere with study participation, including having serum albumin ≤3.0 g/dL; and serum transaminase (alanine aminotransferase [ALT], glutamic-pyruvic transaminase [SGPT], aspartate aminotransferase [AST] or glutamic-oxaloacetic transaminase [SGOT])>2.5 times the upper limit of normal at screening.
When otherwise confirmed eligible at Visit 1, if taking more than 1,500 mg per day of elemental calcium (from diet and supplements), subjects reduce calcium use (to ≤1,500 mg per day) for the duration of the study.
When otherwise confirmed eligible at Visit 1, if taking bone metabolism therapies that may interfere with study endpoints, subjects discontinue use of these agents for the duration of the study. […]
Blood samples are collected at weekly, biweekly or monthly intervals during the pre-treatment period, the 52-week treatment period, the 6-week post-treatment FU period, and at early termination (ET), if applicable. Key parameters analyzed in the collected samples include: plasma iPTH, serum calcium (corrected for serum albumin), serum phosphorus, serum total 25-hydroxyvitamin D, serum calcifediol, serum 1,25-dihydroxyvitamin D3, and serum 24,25-dihydroxyvitamin D3 (24,25D3). Vital signs (VS), and AEs are monitored at each study visit. Other parameters monitored less frequently include brief physical examinations (PEs) and clinical laboratory tests (hematology and clinical chemistries). […] Additional parameters, including serum FGF23 and serum bone turnover markers are monitored at specified intervals. […]

In series [3] the test system is patients having undergone bariatric surgery (bypass of at least the duodenum). Kind of series: Long-term efficacy study in Roux-en-Y surgery patients (one year, randomized, double-blind, vs cholecalciferol). On the procedure: The effectiveness of oral sustained-release 25-hydroxyvitamin D3 in restoring serum total 25-hydroxyvitamin D to optimal levels (>30 ng/mL) and increasing bone mineral density, is examined in a one year study of adult male and female patients having undergone bariatric surgery for weight reduction, wherein the surgery included bypass of at least the duodenum. In a randomized, double-blind controlled study, patients are treated with sustained-release 25-hydroxyvitamin D3 or cholecalciferol.
A total of 200 subjects participate in this study. All subjects participating in this study are aged 18 years or older, have bone mineral density T-scores between −2.0 and −4.0 as assessed by dual energy x-ray absorptiometry (DEXA), and have serum total 25-hydroxyvitamin D levels less than 30 ng/mL at the time of enrollment. All subjects receive a multivitamin therapy including calcium (up to 1,000 mg daily) and either cholecalciferol (3000 IU daily) or multiple sustained-release 25-hydroxyvitamin D3 (softgel capsules containing 30 μg 25-hydroxyvitamin D3), and abstain from receiving other Vitamin D therapy and significant sun exposure at study start and continuing through study termination.
After 3 months, the daily 25-hydroxyvitamin D3 softgel capsule dosage is maintained unchanged in patients whose serum total 25-hydroxyvitamin D is between 50 and 90 ng/mL, and increased by one capsule in patients whose serum total 25-hydroxyvitamin D is below 50 ng/mL.
Serum total 25-hydroxyvitamin D, plasma iPTH, serum calcium, serum phosphorus, urinary calcium, urinary phosphorus, and urinary creatinine are measured from the day of surgery, and at monthly intervals. Bone mineral density at four sites (total hip, femoral neck, ⅓radius, and lumbar spine) is determined at quarterly intervals by DEXA.

[4] abbreviates: months 0-2, cholecalciferol 3000 IU daily.
Where [5] appears, read: time zero and months 1 and 2, cholecalciferol 3000 IU daily following surgery.
Where [6] appears, read: after 12 months of treatment, DEXA.
[7] abbreviates: once stable dosing has been achieved.

Each structure is given as a SMILES string.

As for `C=C1CC[C@H](O)C/C1=C/C=C1\CCC[C@]2(C)[C@@H]([C@H](C)CCCC(C)C)CC[C@@H]12` [cholecalciferol], in series [1] (setting [4]), the “change in mean serum total 25-hydroxyvitamin D level following surgery” value is on record as “only a moderate increase” and the “change in serum intact parathyroid hormone level following surgery” value was “no significant difference”. In addition, in series [1] (setting [5]), the “group mean serum intact parathyroid hormone level” value is recorded as “greater than 70 pg/mL” and the “group mean serum total 25-hydroxyvitamin D level” value was “less than 30 ng/mL”. The “change in bone mineral density” value in series [2] (setting [6]) is “insignificant changes or reductions”. In addition, in series [2] (setting [7]), the incidence of hypocalcemia entry was “occur more frequently” and the “severity / occurrence of secondary hyperparathyroidism” value was “occur more frequently”. Also, the “change in bone mineral density” value in series [3] (setting [6]) is recorded as “insignificant changes or reductions”. Further, in series [3] (setting [7]), the incidence of hypocalcemia result is “occur more frequently” and the “severity / occurrence of secondary hyperparathyroidism” value is “occur more frequently”.
